Assay results published in patent US20200231638A1, “STABILIZED ANTI-MICROBIAL PEPTIDES” (priority 2015, published 2020).
Bridge positions count the residues as written; N and C are the ends. Square brackets hold non-standard residues; d marks the D form. Peptide text beside a SMILES is read from it. R8 = C=CCCCCCC[C@@](C)(N)C(=O)O; S5 = C=CCCC[C@](C)(N)C(=O)O; Nle = CCCC[C@H](N)C(=O)O

Tests used:
E. coli = format: cell-based, Escherichia coli
Outline: (§1)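 Broth microdilution; anion-exchange-refined MHB; overnight culture at 37° C, diluted and regrown; inoculum 5×10^5 CFU/ml final; peptides serially diluted in water; 20-24 h, 37° C; MIC = lowest concentration without visible growth.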

human red blood cells = format: cell-based; conditions: for % Hemolysis at 25 μg/ml: red cells of human, 1 h
Outline: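 Washed human RBCs as 1% (v/v) suspension in phosphate-buffered saline incubated 1 h at 37° C with serially diluted peptides. Hemoglobin release in supernatant measured spectrophotometrically (570 nm), % hemolysis relative to untreated and 1% Triton-X100 controls; MHC defined as concentration giving less than 1% release.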

B. cereus = format: cell-based, Bacillus cereus
Outline: as §1

P. aeruginosa = format: cell-based, Pseudomonas aeruginosa
Outline: as §1

S. aureus = format: cell-based, Staphylococcus aureus
Outline: as §1

**Q.** Which results are given for `CCCC[C@H](NC(=O)[C@@H](NC(=O)[C@H](CCC(=O)O)NC(=O)CNC(=O)[C@]1(C)CCCC=CCCC[C@](C)(NC(=O)[C@H](Cc2ccccc2)NC(=O)[C@H](CCCCN)NC(=O)[C@H](CCCCN)NC(=O)[C@H](C)NC(=O)[C@H](CO)NC(=O)[C@H](Cc2c[nH]cn2)NC(=O)[C@H](CC(C)C)NC(=O)[C@H](Cc2ccccc2)NC(=O)[C@H](CCCCN)NC(=O)CNC(=O)[C@@H](NC(=O)CN)[C@@H](C)CC)C(=O)N[C@@H](CCCCN)C(=O)N[C@@H](C)C(=O)N[C@@H](Cc2ccccc2)C(=O)N1)[C@@H](C)CC)C(=O)N[C@@H](CC(N)=O)C(=O)N[C@@H](CO)C(N)=O` [Mag(i + 4)12] (H-GIGKFLHSAKKF[S5]KAF[S5]GEI[Nle]NS-NH2; staple 13-17)?
**A.** MIC E. coli (E. coli): 3.1 µg/mL; % Hemolysis at 25 μg/ml (human red blood cells): 76.8%; MIC B. cereus (B. cereus): 3.1 µg/mL; MIC P. aeruginosa (P. aeruginosa): 3.1 µg/mL; MIC S. aureus (S. aureus): 6.2 µg/mL

**Q.** Which “MIC E. coli” value (E. coli) does the source give for `CCCC[C@H](NC(=O)[C@]1(C)CCCC=CCCC[C@](C)(NC(=O)[C@H](C)NC(=O)[C@H](CCCCN)NC(=O)CNC(=O)[C@H](Cc2ccccc2)NC(=O)[C@H](CCCCN)NC(=O)[C@H](CCCCN)NC(=O)[C@H](C)NC(=O)[C@H](CO)NC(=O)[C@H](Cc2c[nH]cn2)NC(=O)[C@H](CC(C)C)NC(=O)[C@H](Cc2ccccc2)NC(=O)[C@H](CCCCN)NC(=O)CNC(=O)[C@H](CCCCN)NC(=O)CN)C(=O)N[C@@H](C(C)C)C(=O)NCC(=O)N[C@@H](CCC(=O)O)C(=O)N1)C(=O)N[C@@H](CC(N)=O)C(=O)N[C@@H](CO)C(N)=O` [Mag(i + 4)15(I2K), GKGKFLHSAKKFGKAXVGEXBNS] (H-GKGKFLHSAKKFGKA[S5]VGE[S5][Nle]NS-NH2; staple 16-20) here?
**A.** The value was 1.6 µg/mL.

**Q.** And the “% Hemolysis at 25 μg/ml” value (human red blood cells)?
**A.** Its value is 2.3%.

**Q.** And the “MIC B. cereus” value (B. cereus)?
**A.** The value was 12.5 µg/mL.

**Q.** And the “MIC P. aeruginosa” value (P. aeruginosa)?
**A.** The value was 3.1 µg/mL.

**Q.** What about the “MIC S. aureus” value (S. aureus) of the same compound?
**A.** The value was 23 µg/mL.

**Q.** How did the “MIC E. coli” value (E. coli) turn out when `CCCC[C@H](NC(=O)[C@@H](NC(=O)[C@H](CCC(=O)O)NC(=O)[C@]1(C)CCCC=CCCCCCC[C@@](C)(NC(=O)[C@H](CCCCN)NC(=O)[C@H](C)NC(=O)[C@H](CO)NC(=O)[C@H](Cc2c[nH]cn2)NC(=O)[C@H](CC(C)C)NC(=O)[C@H](Cc2ccccc2)NC(=O)[C@H](CCCCN)NC(=O)CNC(=O)[C@@H](NC(=O)CN)[C@@H](C)CC)C(=O)N[C@@H](Cc2ccccc2)C(=O)NCC(=O)N[C@@H](CCCCN)C(=O)N[C@@H](C)C(=O)N[C@@H](Cc2ccccc2)C(=O)N[C@@H](C(C)C)C(=O)N1)[C@@H](C)CC)C(=O)N[C@@H](CC(N)=O)C(=O)N[C@@H](CO)C(N)=O` [Mag(i + 7)10] (H-GIGKFLHSAK[R8]FGKAFV[S5]EI[Nle]NS-NH2; staple 11-18) was run?
**A.** The value was 3.1 µg/mL.

**Q.** And the “% Hemolysis at 25 μg/ml” value (human red blood cells)?
**A.** The value was 53.1%.

**Q.** And the “MIC B. cereus” value (B. cereus)?
**A.** The value was 6.2 µg/mL.

**Q.** What about the “MIC P. aeruginosa” value (P. aeruginosa) of the same compound?
**A.** The value was 6.2 µg/mL.

**Q.** And the “MIC S. aureus” value (S. aureus)?
**A.** Its value is 3.1 µg/mL.

**Q.** What does the source list for `CCCC[C@H](NC(=O)[C@@H](NC(=O)[C@H](CCC(=O)O)NC(=O)CNC(=O)[C@@H](NC(=O)[C@H](Cc1ccccc1)NC(=O)[C@]1(C)CCCC=CCCC[C@](C)(NC(=O)[C@H](CCCCN)NC(=O)[C@H](C)NC(=O)[C@H](CO)NC(=O)[C@H](Cc2c[nH]cn2)NC(=O)[C@H](CC(C)C)NC(=O)[C@H](Cc2ccccc2)NC(=O)[C@H](CCCCN)NC(=O)CNC(=O)[C@@H](NC(=O)CN)[C@@H](C)CC)C(=O)N[C@@H](Cc2ccccc2)C(=O)NCC(=O)N[C@@H](CCCCN)C(=O)N1)C(C)C)[C@@H](C)CC)C(=O)N[C@@H](CC(N)=O)C(=O)N[C@@H](CO)C(N)=O` [Mag(i + 4)10] (H-GIGKFLHSAK[S5]FGK[S5]FVGEI[Nle]NS-NH2; staple 11-15)?
**A.** MIC E. coli (E. coli): 3.1 µg/mL; % Hemolysis at 25 μg/ml (human red blood cells): 23.6%; MIC B. cereus (B. cereus): 6.2 µg/mL; MIC P. aeruginosa (P. aeruginosa): 12.5 µg/mL; MIC S. aureus (S. aureus): 6.2 µg/mL

**Q.** How did the “MIC E. coli” value (E. coli) turn out when `CC[C@H](C)[C@H](NC(=O)CN)C(=O)NCC(=O)N[C@@H](CCCCN)C(=O)N[C@@H](Cc1ccccc1)C(=O)N[C@@H](CC(C)C)C(=O)N[C@@H](Cc1c[nH]cn1)C(=O)N[C@@H](CO)C(=O)N[C@@H](C)C(=O)N[C@@H](CCCCN)C(=O)N[C@@H](CCCCN)C(=O)N[C@@H](Cc1ccccc1)C(=O)NCC(=O)N[C@]1(C)CCCCCCC=CCCC[C@@](C)(C(=O)N[C@@H](CC(N)=O)C(=O)N[C@@H](CO)C(N)=O)NC(=O)[C@H]([C@@H](C)CC)NC(=O)[C@H](CCC(=O)O)NC(=O)CNC(=O)[C@H](C(C)C)NC(=O)[C@H](Cc2ccccc2)NC(=O)[C@H](C)NC1=O` [Mag(i + 7)13] (H-GIGKFLHSAKKFG[R8]AFVGEI[S5]NS-NH2; staple 14-21 (inferred); N-terminus and C-terminus assumed) was run?
**A.** The value was 1.6 µg/mL.

**Q.** What about the “% Hemolysis at 25 μg/ml” value (human red blood cells) of the same compound?
**A.** Its value is 63.6%.

**Q.** What about the “MIC B. cereus” value (B. cereus) of the same compound?
**A.** The value was 3.1 µg/mL.

**Q.** And the “MIC P. aeruginosa” value (P. aeruginosa)?
**A.** Its value is 6.2 µg/mL.

**Q.** And the “MIC S. aureus” value (S. aureus)?
**A.** The value was 12.5 µg/mL.

**Q.** How did the “MIC E. coli” value (E. coli) turn out when `CCCC[C@H](NC(=O)[C@@H](NC(=O)[C@H](CCC(=O)O)NC(=O)CNC(=O)[C@@H](NC(=O)[C@H](Cc1ccccc1)NC(=O)[C@H](C)NC(=O)[C@H](CCCCN)NC(=O)[C@]1(C)CCCC=CCCC[C@](C)(NC(=O)[C@H](CO)NC(=O)[C@H](Cc2c[nH]cn2)NC(=O)[C@H](CC(C)C)NC(=O)[C@H](Cc2ccccc2)NC(=O)[C@H](CCCCN)NC(=O)CNC(=O)[C@@H](NC(=O)CN)[C@@H](C)CC)C(=O)N[C@@H](CCCCN)C(=O)N[C@@H](CCCCN)C(=O)N[C@@H](Cc2ccccc2)C(=O)N1)C(C)C)[C@@H](C)CC)C(=O)N[C@@H](CC(N)=O)C(=O)N[C@@H](CO)C(N)=O` [Mag(i + 4)8, GIGKFLHSXKKFXKAFVGEIBNS] (H-GIGKFLHS[S5]KKF[S5]KAFVGEI[Nle]NS-NH2; staple 9-13) was run?
**A.** The value was 3.1 µg/mL.

**Q.** And the “hemolytic activity (in words)” value (human red blood cells)?
**A.** The value was “indiscriminate lytic activity”.

**Q.** What about the “% Hemolysis at 25 μg/ml” value (human red blood cells) of the same compound?
**A.** The value was 74.6%.

**Q.** And the “MIC B. cereus” value (B. cereus)?
**A.** Its value is 3.1 µg/mL.

**Q.** What about the “MIC P. aeruginosa” value (P. aeruginosa) of the same compound?
**A.** The value was 3.1 µg/mL.

**Q.** And the “MIC S. aureus” value (S. aureus)?
**A.** Its value is 12.5 µg/mL.

**Q.** How did the “MIC E. coli” value (E. coli) turn out when `CC(C)C[C@H](NC(=O)[C@H](Cc1ccc(O)cc1)NC(=O)[C@H](Cc1c[nH]cn1)NC(=O)[C@@H](NC(=O)[C@H](CC(C)C)NC(=O)[C@]1(C)CCCC=CCCC[C@](C)(NC(=O)[C@H](Cc2c[nH]cn2)NC(=O)[C@H](CCCCN)NC(=O)CNC(=O)[C@@H](NC(=O)[C@H](Cc2c[nH]cn2)NC(=O)[C@H](C)NC(=O)[C@H](C)NC(=O)[C@H](CCCCN)NC(=O)[C@H](CCCCN)NC(=O)[C@]2(C)CCCC=CCCC[C@](C)(NC(=O)CN)C(=O)NCC(=O)N[C@@H](CO)C(=O)N[C@@H](Cc3ccccc3)C(=O)N2)C(C)C)C(=O)NCC(=O)N[C@@H](CCCCN)C(=O)N[C@@H](C)C(=O)N1)[C@@H](C)O)C(N)=O` [Pleu(i + 4)1, 15] (H-G[S5]GSF[S5]KKAAHVGKH[S5]GKA[S5]LTHYL-NH2; staple 2-6, 16-20; N-terminus assumed) was run?
**A.** The value was 1.6 µg/mL.

**Q.** What about the “% Hemolysis at 25 μg/ml” value (human red blood cells) of the same compound?
**A.** Its value is 88.2%.

**Q.** And the “MIC B. cereus” value (B. cereus)?
**A.** The value was 3.1 µg/mL.

**Q.** And the “MIC P. aeruginosa” value (P. aeruginosa)?
**A.** Its value is 1.6 µg/mL.

**Q.** What about the “MIC S. aureus” value (S. aureus) of the same compound?
**A.** The value was 1.6 µg/mL.
